Target: T1, PI3Kalpha (Homo sapiens, UniProt P42336)
T1 construct: His (N); host or cells: SF9 insect cells (baculovirus)
Assay: Human PI3Kα enzyme assay (HTRF)
Type: biochemical
Conditions: ATP 25 uM, di-C8 PI(4,5)P2, 30 minutes at room temperature, values given only as potency bins
Source text: The catalytic subunits of PI3Ks are cloned into either pDEST8 (p110 alpha) or pDEST10 (p110beta, p110delta, and p110gamma) as N-terminal His tagged fusion proteins using the Gateway system (Invitrogen, catalog#11804-010 for pDEST8 and 11806-015 for pDEST10). The sequences are verified before recombinant protein expression using the Baculovirus Expression System with Gateway® Technology. The accession numbers for the subunits are as follows:
The regulatory subunits of PI3Ks are cloned into pDEST8 as un-tagged protein using the Gateway system (Catalog#11804-010). The sequences are verified before recombinant protein expression using the Baculovirus Expression System with Gateway® Technology. The accession numbers for the subunits are as following: p85 alpha (GB: BC030815) p101 (GB: AB028925)
For expression of the p110 complexes, the p85 (MOI of 4) is co-infected with p110 alpha, beta, and delta respectively (1 MOI) in SF9 cells and harvested at 60 hours post co-infection. P110 gamma was infected at 1 MOI and harvested at 60 hours post infection.
For purification, PI3Ks are purified by Ni-NTA Agarose (Qiagen #30250) followed by Mono Q 10/100 GL (Ge Healthcare #17-5167-01). VPS34 is purified by Glutathione Sepharose 4 Fast Flow (GE Healthcare #17-5132-03) followed by HiTrap Q (GE Healthcare #17-1153-01).
1) Human PI3Kα Enzyme Assay Method
0.5 uL compounds in DMSO are added to wells of a 384 well microtitre plate (Corning 3575). At room temperature: 10 ul PI3K reaction buffer (50 mM Hepes, 5 mM DTT, 150 mM NaCl, 10 mM beta-glycerophosphate, 10 mM MgCl2, 0.25 mM sodium cholate and 0.001% CHAPS, pH 7.00) containing ATP (25 uM, Promega) is added followed immediately by 10 ul PI3K reaction buffer containing di-C8 PI(4,5)P2 (3.5 uM, CellSignals) and PI3Kalpha (0.4875 nM, Millennium Protein Sciences Group) and the mixture is incubated with shaking at room temperature for 30 minutes. Then 5 ul PI3K stop mix (50 mM Hepes, 5 mM DTT, 150 mM NaCl, 0.01% Tween-20, 15 mM EDTA and 25 nM biotin-PI(3,4,5)P3 (Echelon) is added to quench the reaction followed immediately by addition of 5 ul HTRF detection mix (50 mM Hepes, 5 mM DTT, 150 mM NaCl, 0.01% Tween-20, 40 mM KF, 10 nM GST:GRP-1 PH domain (Millennium Protein Sciences Group), 15 nM Streptavidin-XL (CisBio) and 0.375 nM anti-GST Eu++ antibody (CisBio) at pH 7.00). The plates are then incubated for 1 hour at room temperature with shaking and then read on a BMG PheraStar Plus reader.

T1 sequence (P42336 whole entry): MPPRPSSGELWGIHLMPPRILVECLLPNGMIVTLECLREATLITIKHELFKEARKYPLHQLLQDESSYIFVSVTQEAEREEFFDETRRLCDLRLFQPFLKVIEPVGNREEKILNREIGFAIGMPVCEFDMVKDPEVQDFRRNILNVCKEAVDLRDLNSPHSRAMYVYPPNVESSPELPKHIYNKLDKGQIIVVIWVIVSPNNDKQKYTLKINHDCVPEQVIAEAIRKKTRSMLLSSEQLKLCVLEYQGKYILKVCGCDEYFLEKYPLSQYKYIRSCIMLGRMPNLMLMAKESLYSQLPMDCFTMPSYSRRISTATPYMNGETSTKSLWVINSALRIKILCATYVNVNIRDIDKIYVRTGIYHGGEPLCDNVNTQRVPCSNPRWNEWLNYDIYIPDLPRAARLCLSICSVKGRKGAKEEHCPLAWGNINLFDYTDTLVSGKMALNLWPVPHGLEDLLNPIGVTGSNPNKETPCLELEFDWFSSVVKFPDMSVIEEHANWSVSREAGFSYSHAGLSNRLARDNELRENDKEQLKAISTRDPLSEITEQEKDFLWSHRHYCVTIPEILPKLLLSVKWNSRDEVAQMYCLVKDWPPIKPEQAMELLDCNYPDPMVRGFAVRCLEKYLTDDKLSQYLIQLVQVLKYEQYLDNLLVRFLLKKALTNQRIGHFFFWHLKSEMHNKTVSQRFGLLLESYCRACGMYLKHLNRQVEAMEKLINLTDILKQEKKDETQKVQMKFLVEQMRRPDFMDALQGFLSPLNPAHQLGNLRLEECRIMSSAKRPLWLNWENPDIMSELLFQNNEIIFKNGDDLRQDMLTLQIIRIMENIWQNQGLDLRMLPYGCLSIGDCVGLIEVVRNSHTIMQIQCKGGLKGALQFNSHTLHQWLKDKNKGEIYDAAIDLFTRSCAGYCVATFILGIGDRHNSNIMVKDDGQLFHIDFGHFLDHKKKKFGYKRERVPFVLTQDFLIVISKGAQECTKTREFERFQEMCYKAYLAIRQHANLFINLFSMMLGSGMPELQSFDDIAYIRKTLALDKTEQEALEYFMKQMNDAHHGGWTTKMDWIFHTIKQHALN
T1 sequence (P27986 whole entry partner): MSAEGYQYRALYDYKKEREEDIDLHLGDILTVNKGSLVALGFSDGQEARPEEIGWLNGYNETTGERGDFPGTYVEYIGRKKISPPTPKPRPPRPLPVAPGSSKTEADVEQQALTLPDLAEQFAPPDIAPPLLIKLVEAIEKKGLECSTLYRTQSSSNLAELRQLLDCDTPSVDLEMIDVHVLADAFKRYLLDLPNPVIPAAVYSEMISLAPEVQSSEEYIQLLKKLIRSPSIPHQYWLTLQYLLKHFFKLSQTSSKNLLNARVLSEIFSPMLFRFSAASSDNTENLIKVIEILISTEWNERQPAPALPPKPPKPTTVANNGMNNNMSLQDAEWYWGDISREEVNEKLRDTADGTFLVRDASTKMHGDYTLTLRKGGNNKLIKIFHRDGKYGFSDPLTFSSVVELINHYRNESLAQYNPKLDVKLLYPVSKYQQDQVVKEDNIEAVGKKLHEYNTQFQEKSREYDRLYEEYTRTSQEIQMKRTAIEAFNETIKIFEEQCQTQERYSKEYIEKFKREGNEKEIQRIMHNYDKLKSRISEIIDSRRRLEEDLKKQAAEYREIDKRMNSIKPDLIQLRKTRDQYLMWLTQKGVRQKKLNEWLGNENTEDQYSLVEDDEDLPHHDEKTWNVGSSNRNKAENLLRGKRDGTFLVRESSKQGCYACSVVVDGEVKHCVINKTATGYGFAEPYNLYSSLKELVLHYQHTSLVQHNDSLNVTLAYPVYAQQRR

Row | SMILES | IC50 [µM]
1 | CNc1nccc(-c2sc(-c3ncc[nH]3)c(-c3ccc(Cl)cc3Cl)c2C#N)n1 [Compound 16] | < 0.1
2 | N#Cc1c(-c2ccnc(NC(=O)c3ccccc3)c2)sc(-c2nnc[nH]2)c1-c1ccc(Cl)cc1Cl [Compound 1] | > 1
3 | Cc1cnc(N)nc1-c1sc(-c2nnc[nH]2)c(-c2ccc(Cl)cc2Cl)c1C#N [Compound 8] | > 1
4 | COc1ccc(CNc2cc(-c3sc(-c4nnc[nH]4)c(-c4ccc(Cl)cc4Cl)c3C#N)ccn2)c(OC)c1 [Compound 33] | > 1
5 | CNc1cc(-c2cc(-c3ccc(Cl)cc3Cl)c(-c3ncc[nH]3)s2)ncn1 [Compound 84] | > 1

Continued, values first:

Row | IC50 [µM] | SMILES
6 | > 1 | CS(=O)(=O)Nc1cc(-c2sc(-c3nnc[nH]3)c(-c3ccc(Cl)cc3Cl)c2C#N)ccn1 [Compound 4]
7 | 0.1 to 1 | N#Cc1c(-c2ccnc(N)c2)sc(C(N)=O)c1-c1ccc(Cl)cc1Cl [Compound 60]
8 | > 1 | COc1cc(-c2sc(-c3nnc[nH]3)c(-c3ccc(Cl)cc3Cl)c2C#N)ccn1 [Compound 24]
9 | < 0.1 | N#Cc1c(-c2ccnc(N)c2)sc(-c2cnc[nH]2)c1-c1ccc(Cl)cc1Cl [Compound 80, 2-(2-aminopyridin-4-yl)-4-(2,4-dichlorophenyl)-5-(1H-imidazol-5-yl)thiophene-3-carbonitrile]
10 | > 1 | CNC(=O)c1cc(-c2sc(-c3nnc[nH]3)c(-c3ccc(Cl)cc3Cl)c2C#N)ccn1 [Compound 44]
